PMC8282797, “Strictly regulated agonist-dependent activation of AMPA-R is the key characteristic of TAK-653 for robust synaptic responses and cognitive improvement” (Scientific Reports, 2021)
Entries after “also recorded” stand apart in the source; their conditions may differ. Read-outs that look alike come from different tables or passages of the source.

Assays:
[1] = test system: MK-801-induced working memory deficit in rats; test: Radial arm maze (RAM) test, MK-801-induced working memory deficit; type: in vivo, rat; settings: for RAM (effective doses): summary
Procedure: RAM tests were performed using 9-week-old male Long-Evans rats as previously described with a minor modification. Each arm was 50 cm long, 10 cm wide and 40 cm high, and the maze was elevated 50 cm above the floor. Long-Evans rats were food-restricted to 85% of free-feeding body weight throughout the experimental period. Rats were well trained to collect pellets placed on the edge of each arm. The learning criterion for the testing session was defined as 2 errors or fewer for 2 consecutive days. In the testing session, each rat was placed on the maze facing the fixed arm at the start of the trial. The entry of rats into each arm was recorded in sequence until all pellets in the 8 arms were consumed, or 5 min had elapsed. […] Thirty min after dosing of vehicle or MK-801, rats were placed on the maze. Details are described in the Supplementary Information.
The experiment was performed using 9-week-old male Long-Evans rats as described previously (Zajaczkowski et al., 1996) with a minor modification. Each arm was 50 cm long, 10 cm wide and 40 cm high, and the maze was elevated 50 cm above the floor. After being fasted for 24 h, male Long-Evans rats were food-restricted to 85% of free-feeding body weight on the first day of exposure to the maze and throughout the experimental period. The experiment consists of two sessions, training and testing session. In the training session, rats were habituated to the maze and then trained. Reinforcement consisted of 3 food pellets (45 mg each) in the food cup was used. On the first day of habituation to the maze, reinforcements were placed near the entrance and at the mid-point of each arm. Three rats were placed on the maze at one time and allowed to explore and consume the pellets for 8 min. On the second day of habituation, each rat was placed on the maze and allowed 5 min to consume the pellets placed at the mid-point and in the food cup at the end of each arm. From the third day, reinforcement was placed in the food cup at the end of each arm. Rats were well trained to collect pellets placed on the edge of each arm. The learning criterion for the testing session was defined as 2 errors or less for two consecutive days. In the previous day of the testing session, baseline level of performance was qualified to confirm that rats completed collecting all pellets placed in the 8 arms with two errors or less. In the testing session, each rat was placed on the maze facing away from the experimenter and facing the fixed arm at the start of the trial. The entry of rats into each arm was recorded in sequence. Rats were allowed to explore until all pellets in the 8 arms were consumed, or 5 min had elapsed. Entry into an arm previously chosen was counted as an error. […] […] Thirty min after dosing of vehicle or MK-801, rats were placed on the maze. Data were indicated as the mean ± SEM in the testing session.

AMPA-R = test: Whole-cell patch clamp recording in acute PFC slices (AMPA-R-mediated EPSPs); type: cell-based, rat; parameters: key to Synaptic EPSP response: -: No effect or slight effect; +: Potent; ++: Very potent; settings: for Synaptic EPSP response: summary grade; for Spike number and EPSP duration after switch from LY451646 (30 μM): 10 μM
Procedure: Coronal PFC slices were prepared from male Sprague–Dawley rats (10- to 14-day-old). The slices including layer V PFC pyramidal neurons were perfused at a flow rate of 1–2 ml/min with recording aCSF containing the following: 124 mM NaCl, 5 mM KCl, 1.2 mM NaH2PO4, 1.5 mM MgCl2, 2.5 mM CaCl2, 10 mM glucose, 24 mM NaHCO3 bubbled with carbogen (95% O2; 5% CO2). Current clamp recordings at holding potential of approximately − 65 mV with constant current were carried out at 32–33 °C using a pipette filled with an intracellular solution consisting of: 140 mM K-gluconate, 4 mM KCl, 10 mM HEPES, 0.2 mM EGTA, 4 mM MgATP, 0.3 mM Na2GTP, pH 7.3 with KOH in the presence of bicuculline (20 μM), CGP52422 (10 μM), and APV (50 μM) to block GABAA and B and NMDA receptors, respectively. Methods are described in the Supplementary Information.
Coronal prefrontal cortex (PFC) slices were prepared from male Sprague-Dawley rats (10- to 14-day-old). Animals were sacrificed following acute decapitation, and their brain was quickly removed and placed in an ice-cold modified artificial cerebrospinal fluid (aCSF) of the following composition: 92 mM N-methyl-D-glucamine (NMDG), 2.5 mM KCl, 1.25 mM NaH2PO4, 30 mM NaHCO3, 20 mM HEPES, 25 mM glucose, 2 mM thiourea, 5 mM Na-ascorbate, 3 mM Na-pyruvate, 0.5 mM CaCl2, and 10 mM MgSO4. The pH of the solution was titrated to 7.3-7.4 with concentrated HCl. Coronal slices were cut at a thickness of 300 μm with using a linear slicer PRO7 (Dosaka EM, Kyoto, Japan). Slices were initially recovered for ≤ 15 min at 34°C and then transferred to a holding chamber containing HEPES holding aCSF (92 mM NaCl, 2.5 mM KCl, 1.25 mM NaH2PO4, 30 mM NaHCO3, 20 mM HEPES, 25 mM glucose, 2 mM thiourea, 5 mM Na-ascorbate, 3 mM Na-pyruvate, 2 mM CaCl2 and 2 mM MgSO4) at room temperature for at least 1 h before starting the recording. The slices were then transferred to the recording chamber mounted on a FN1 microscope (Nikon, Tokyo, Japan), in which they were submerged and perfused at a flow rate of 1-2 ml/min with recording aCSF containing the following: 124 mM NaCl, 5 mM KCl, 1.2 mM NaH2PO4, 1.5 mM MgCl2, 2.5 mM CaCl2, 10 mM glucose, 24 mM NaHCO3. All aCSF solutions were continuously bubbled with carbogen (95% O2; 5% CO2). Differential interference contrast (DIC) microscopy (C10639, Hamamatsu, Japan) was used to visualize pyramidal neurons in the PFC. Patch pipettes (5-6 MΩ) were prepared from borosilicate capillary glass using a micropipette puller PC-10 (NARISHIGE, Tokyo, Japan). Current clamp recordings were carried out at 32-33°C using a pipette filled with intracellular solution consisting of: 140 mM K-gluconate, 4 mM KCl, 10 mM HEPES, 0.2 mM EGTA, 4 mM MgATP, 0.3 mM Na2GTP, pH 7.3 with KOH in the presence of bicuculline (20 μM), CGP52422 (10 μM), and APV (50 μM) to block GABAA and B and NMDA receptors, respectively. Signals were recorded using a Multiclamp 700B amplifier (Molecular Devices, LLC, Orleans Drive Sunnyvale, CA), digitized using a Digidata 1440A interface board, filtered between 2 kHz, sampled at 10 kHz, and analyzed with pClamp10 software. Layer V PFC pyramidal neurons were recorded at holding potential of approximately –65 mV with constant current. A hyperpolarizing step (–20 pA) prior to each stimulation was used to monitor any changes in access resistance. Postsynaptic potentials were evoked by constant current single stimulation pulses (100 μs, 10-100 μA) delivered with a 20-s interstimulus interval using monopolar stimulating electrodes positioned in layer I.

SMILES | Working memory in the RAM test ([1]; 0.1 to 3 mg/kg, i.p., MK-801 0.08 mg/kg, s.c.) | RAM (effective doses) [1] | Membrane potentials of recorded neurons (AMPA-R; 0.3 μM) | Polysynaptic EPSP duration and evoked spike number (AMPA-R; 0.3 μM, 5 min, membrane held at −65 mV) | Synaptic EPSP response (AMPA-R) | MK-801-induced deficits in RAM task ([1]; 0.1, 0.3, 3 and 10 mg/kg, p.o., MK-801 0.08 mg/kg, s.c.) | Membrane potentials of recorded neurons (AMPA-R) | Spike number and EPSP duration after switch from LY451646 (30 μM) (AMPA-R) | Suprathreshold response (AMPA-R; 10 μM for 10 min) | Spike number and EPSP duration after switch from LY451646 (30 μM) (AMPA-R; listed as TAK653) | Suprathreshold polysynaptic EPSPs (evoked spikes, EPSP duration) (AMPA-R; 0.3 to 30 μM, 10 min bath application)
Cc1onc(O)c1CC(N)C(=O)O (stereo not drawn) [AMPA, alpha-amino-3-hydroxy-5-methyl-4-isoxazole-propionic acid] | neither LY451646 at 0.03 to 1 mg/kg, p.o. nor AMPA at 0.1 to 3 mg/kg, i.p. improve | No effect | increased | reduced; also recorded: diminished the suprathreshold response | ─ |  |  |  |  |  | 
CC1=CN2CCS(=O)(=O)N=C2C(c2ccc(OC3CCCCC3)cc2)=N1 [TAK-653, 9-[4-(Cyclohexyloxy)phenyl]-7-methyl-3,4-dihydropyrazino[2,1-c][1,2,4]thiadiazine 2,2-dioxide] |  | Effective (0.1, 0.3, 3, 10) |  |  | ++ | significantly ameliorated | did not increase | a clear increase | enhanced the suprathreshold response | further augmentation of spike number | enhanced
